The record followed here is patent US11613538B2, “Method of inhibiting or reducing a viral infection” (PTC Therapeutics, Inc., priority 2009, dated 2023).

The term pIC50 denotes the negative decadic logarithm of the IC50, by convention in mol/L. Read a high pIC50 as a small IC50. For orientation: IC90 means the point of the concentration-response curve where the effect stands at 90%. A word on the CC50: it is the concentration giving 50% cytotoxicity.

Data set [1] deals with Yellow Fever. Kind of data set: microbe, parasite or virus in culture. It counts as cell-based, yellow fever virus.
The test system of data set [2] is HSV-1. Nature of the data set: HSV-1 CPE protection assay in Vero cells. It counts as cell-based, herpes simplex virus-1.
Data set [3] deals with HeLa cells. The conditions noted are these: human.

Each structure is given as a SMILES string. pIC50: −log10 of the molar value.

As for `COc1ccc([C@H]2c3[nH]c4ccc(Cl)cc4c3CCN2C(=O)Oc2ccc(Cl)cc2)cc1` (racemic) [Compound #10], the pIC50 in data set [1] (Yellow fever virus, HeLa) was less than 6.00; in data set [2] (Human alphaherpesvirus 1, HSV-1, DNA, Vero, CPE protection), less than 6.00. The IC90 in data set [1] (Yellow fever virus, HeLa) is more than 1000 nM; in data set [2] (Human alphaherpesvirus 1, HSV-1, Vero, CPE protection), more than 1000 nM. Further, the “Activity against yellow fever” value in data set [1] (at the doses tested, in words) was “inactive”. The “Inhibition of herpes simplex virus-1 (HSV-1)” value in data set [2] (at the doses tested, in words) is on record as “did not inhibit”. In data set [3], this molecule returned a cytotoxic concentration (CC50) of more than 1000 nM.
